Laboratory results taken from patent publication US10610501B2, “Methods and materials for reducing ischemia-reperfusion injury” (The University of Pécs (Pécsi Tudományegyetem), priority 2014, dated 2020).

Key:
Assay type in all cases: in vivo, rat
[1] = system: Wistar albino rats, ischemia-reperfusion; test: Malondialdehyde (MDA) levels in whole blood after ischemia-reperfusion (infrarenal aorta occlusion)
Method: (§1) The rats were divided randomly into four groups. The first group was a group of operated rats that underwent ischemia followed by an hour-long reperfusion without being treated with ABA (operated untreated control). The other three groups included operated rats that underwent ischemia followed by an hour-long reperfusion with an ABA treatment (intravenously; final concentration of 100 μM) either 20 minutes, 40 minutes, or 60 minutes before reperfusion. Upon completion of the one-hour reperfusion, the rats were anesthetized with intraperitoneal injection of ketamine (40 mg/kg) and diazepam (5 mg/kg) and evaluated.
(§2) Rats were randomly divided into five groups. The first group was a group of operated rats that underwent ischemia followed by an hour-long reperfusion without being treated with ABA (operated untreated control). […] Upon completion of the one-hour reperfusion, the rats were anesthetized with intraperitoneal injection of ketamine (40 mg/kg) and diazepam (5 mg/kg) and evaluated.
(§3) In another dosage experiment, rats were randomly divided into five groups. […] Upon completion of the one-hour reperfusion, the rats were anesthetized with intraperitoneal injection of ketamine (40 mg/kg) and diazepam (5 mg/kg) and evaluated.
(§4) Following the anesthesia, an abdominal opening technique was performed by a midline laparotomy incision. […] Right after the one-hour reperfusion treatment period, peripheral blood samples were collected and evaluated.
(§5) Malondialdehyde (MDA) levels were determined in anti-coagulated whole blood using a colorimetric assay as described elsewhere (Ohakawa et al., Anal. Biochem., 95:351-8 (1979)). Reduced glutathione (GSH) levels, as opposed to oxidized GSH, were measured in anti-coagulated whole blood using a colorimetric assay as described elsewhere (Sedlak and Lindsay, Anal. Biochem., 25:192-205 (1968)). Superoxide dismutase (SOD) enzyme activity was measured in washed red blood cells using a colorimetric assay as described elsewhere (Misra and Fridovich, J. Biol. Chem., 247:3170-3175 (1972)). […]

[2] = system: Wistar albino rats, ischemia-reperfusion; test: Reduced glutathione (GSH) levels in whole blood after ischemia-reperfusion
Method: as §1, §2, §3, §4, §5

[3] = system: Superoxide dismutase (SOD); test: Superoxide dismutase (SOD) enzyme activity in washed red blood cells after ischemia-reperfusion
Method: as §1, §2, §3, §4, §5

[4] = system: Wistar albino rats, ischemia-reperfusion; test: Total thiol groups (SH) in whole blood after ischemia-reperfusion; details: 10, 50, 100 and 500 μM, 40 minutes before reperfusion; FIG. 4
Method: (§6) In another dosage experiment, rats were randomly divided into five groups. The first group was a group of operated rats that underwent ischemia followed by an hour-long reperfusion without being treated with ABA (operated untreated control). The other four groups included operated rats that underwent ischemia followed by an hour-long reperfusion with an intravenous ABA treatment 40 minutes before reperfusion at a final concentration of either 10 μM, 50 μM, 100 μM, or 500 μM of ABA. Upon completion of the one-hour reperfusion, the rats were anesthetized with intraperitoneal injection of ketamine (40 mg/kg) and diazepam (5 mg/kg) and evaluated.
as §4, with “incision. See, FIGS. 1A-F. After repositioning the intestines, the aorta came into sight and was carefully isolated.” for “incision.”
Malondialdehyde (MDA) levels were determined in anti-coagulated whole blood using a colorimetric assay as described elsewhere (Ohakawa et al., Anal. Biochem., 95:351-8 (1979)). Reduced glutathione (GSH) levels, as opposed to oxidized GSH, were measured in anti-coagulated whole blood using a colorimetric assay as described elsewhere (Sedlak and Lindsay, Anal. Biochem., 25:192-205 (1968)). […]

SOD mRNA = SOD mRNA expression in renal tissue, semi-quantitative RT-PCR; details: increasing amount of ABA (10-500 μM) injected 40 minutes before reperfusion, FIG. 5
Method: as §6
(§7) Following the anesthesia, an abdominal opening technique was performed by a midline laparotomy incision. See, FIGS. 1A-F. After repositioning the intestines, the aorta came into sight and was carefully isolated. After the isolation process, the aorta was occluded for one hour (ischemic period). The clamp was released at the end of the ischemic period to start the reperfusion for one hour. Right after the one-hour reperfusion treatment period, peripheral blood samples were collected and evaluated.
(§8) Total RNA was extracted from the renal tissue samples with TRI reagent (Sigma-Aldrich) according to the manufacturer's instructions. […]

PPAR-γ mRNA = PPAR-γ mRNA expression in renal tissue, semi-quantitative RT-PCR; details: ABA 40 minutes before reperfusion, FIG. 6
Method: as §6, §7, §8

skeletal muscle = test: Histological analysis of skeletal muscle (m. tensor fasciae latae) after ischemia-reperfusion; details: 100 μM i.v. at 20th minute of 1 h ischemia, 1 h reperfusion; versus ischemic reperfused operated controls; FIG. 7C
Method: Wistar albino rats (250-280 g) were sham operated (control without ischemia-reperfusion treatment), subjected to ischemia followed by reperfusion (ischemia-reperfusion control), or subjected to ischemia followed by reperfusion with ABA being injected intravenously at a final concentration of 100 μM at the 20th minute of the one hour long ischemic period, which was followed by a one-hour reperfusion. After the one-hour reperfusion periods, tissue samples were obtained from the hind limb (m. tensor fasciae latae) of the rats and fixed in 10% buffered formaldehyde prior to being processed in a paraffin-embedded block. Four-micrometer-thick sections were cut and stained with hematoxylin and eosin.

[5] = system: Wistar albino rats, ischemia-reperfusion; test: Inhibition of oxidative stress during the ischemia-reperfusion process, stress markers taken together
Method: as §6, with “Rats were” for “In another dosage experiment, rats were”, “treatment 20” for “treatment 40”
as §3, §4
Malondialdehyde (MDA) levels were determined in anti-coagulated whole blood using a colorimetric assay as described elsewhere (Ohakawa et al., Anal. Biochem., 95:351-8 (1979)). […]

How did the “level of MDA” value ([1]; 100 μM final concentration, superior mesenteric vein, 0, 20, 40 and 60 minutes before reperfusion, blood after 1 h ischemia and 1 h reperfusion, FIG. 2) turn out when CC1=CC(=O)CC(C)(C)[C@@]1(O)/C=C/C(C)=C\C(=O)O [ABA, (2Z,4E)-5-[(1S)-1-hydroxy-2,6,6-trimethyl-4-oxocyclohex-2-en-1-yl]-3-methylpenta-2,4-dienoic acid] was run?
The value was “efficiently diminished the level of MDA at all time-points tested”.

And the “level of MDA” value ([1]; 10, 50, 100 and 500 μM final concentration, 20 minutes before reperfusion, FIG. 3)?
Its value is “efficiently diminished the level of MDA”.

And the “level of MDA” value ([1]; 100 and 500 μM final concentration, 40 minutes before reperfusion, FIG. 4)?
Its value is “efficiently diminished the level of MDA”.

And the “reduced GSH levels” value ([2]; 100 μM final concentration, administered 40 or 60 minutes prior to reperfusion, FIG. 2)?
Its value is “increases in reduced GSH levels”.

What about the “reduced GSH levels” value ([2]; 50, 100 and 500 μM, 20 minutes before reperfusion, FIG. 3) of the same compound?
Its value is “decrease in the levels of reduced GSH levels”.

What about the “reduced GSH levels” value ([2]; 50, 100 and 500 μM, 40 minutes before reperfusion, FIG. 4) of the same compound?
Its value is “increase in the levels of reduced GSH levels”.

What about the SOD activity ([3]; 100 μM final concentration, all time-points tested (0, 20, 40, 60 minutes before reperfusion), FIG. 2) of the same compound?
Its SOD activity is “increases in SOD activity at all time-points tested”.

And the SOD activity ([3]; 10, 100 and 500 μM, 40 minutes before reperfusion, FIG. 4)?
The SOD activity was “increase in SOD activity”.

And the SOD activity ([3]; 100 and 500 μM, 20 minutes before reperfusion, FIG. 3)?
Its SOD activity is “increase in SOD activity”.

And the “levels of SH (total thiol groups)” value [4]?
The value was “increase in the levels of SH”.

What about the “SOD mRNA expression” value (SOD mRNA) of the same compound?
Its value is “increased levels of SOD mRNA expression”.

What about the “expression of PPAR-γ mRNA” value (PPAR-γ mRNA) of the same compound?
The value was “increased expression of PPAR-γ mRNA”.

And the “extracellular oedema (fiber separation)” value (skeletal muscle)?
The value was “minimal extracellular oedema”.

And the intercellular vacuolization (skeletal muscle)?
Its intercellular vacuolization is “near complete absence of intercellular vacuolization”.

What about the “tissue and cell architecture” value (skeletal muscle) of the same compound?
The value was “noticeable helped to preserve of the normal tissue and cell architecture”.

And the “concentration as low as which ABA inhibits oxidative stress” value ([5]; 20 minutes before reperfusion)?
The value was 10 µM.

And the “levels as low as which ABA inhibits oxidative stress” value ([5]; 40 minutes before reperfusion)?
Its value is 10 to 50 µM.
